Measurements reported in the NIST ThermoML archive (doi:10.1016/j.jct.2009.06.010).
Numbers after ± are expanded uncertainties.

Legend:
[1] = mn = molality of the nth substance listed, in mol/kg; settings: 298.15 K, 101 kPa, Liquid; for viscosity: Capillary tube (Ostwald / Ubbelohde) method; for mass density: Vibrating tube method
[2] = cn = amount concentration of the nth substance listed, in mol/dm3; settings: 298.15 K, 101 kPa, Liquid

C[C@H](N)C(=O)N[C@@H](CCC(N)=O)C(=O)O [L-alanyl-L-glutamine] + O
[1]
Settings | mass density [kg/m3] | viscosity [mPa·s]
m1 = 0.0401 | 999.957 ± 0.093 | –
m1 = 0.05 | – | 0.918 ± 0.037
m1 = 0.08086 | 1002.88 ± 0.093 | –
m1 = 0.1 | – | 0.948 ± 0.038
m1 = 0.1012 | 1004.32 ± 0.092 | –
m1 = 0.148 | 1007.6 ± 0.092 | –
m1 = 0.15 | – | 0.978 ± 0.04
m1 = 0.2 | – | 1.008 ± 0.041
m1 = 0.2002 | 1011.17 ± 0.092 | –
m1 = 0.2448 | 1014.22 ± 0.091 | –
m1 = 0.2993 | 1017.77 ± 0.091 | –

NCC(=O)N[C@@H](CCC(N)=O)C(=O)O [glycyl-l-glutamine] + O
[1]
Settings | mass density [kg/m3] | viscosity [mPa·s]
m1 = 0.03879 | 1000.01 ± 0.096 | –
m1 = 0.05 | – | 0.913 ± 0.037
m1 = 0.06116 | 1001.7 ± 0.096 | –
m1 = 0.08141 | 1003.22 ± 0.095 | –
m1 = 0.1 | – | 0.936 ± 0.038
m1 = 0.1008 | 1004.66 ± 0.095 | –
m1 = 0.1497 | 1008.28 ± 0.095 | –
m1 = 0.15 | – | 0.961 ± 0.039
m1 = 0.1987 | 1011.85 ± 0.095 | –
m1 = 0.2 | – | 0.985 ± 0.04
m1 = 0.2522 | 1015.68 ± 0.095 | –

CCCC(=O)[O-].[Na+] [sodium butyrate] + O
[2]
Settings | molar conductivity [S·m2/mol]
c1 = 0.0003234 | 0.00796 ± 8e-05
c1 = 0.001116 | 0.00795 ± 7.9e-05
c1 = 0.001273 | 0.007936 ± 7.9e-05
c1 = 0.001488 | 0.007915 ± 7.9e-05
c1 = 0.00188 | 0.00788 ± 7.9e-05
c1 = 0.00243 | 0.007842 ± 7.8e-05
c1 = 0.002454 | 0.00787 ± 7.9e-05
c1 = 0.003167 | 0.00766 ± 7.7e-05
c1 = 0.006298 | 0.007526 ± 7.5e-05
c1 = 0.008849 | 0.007443 ± 7.4e-05
c1 = 0.01124 | 0.00737 ± 7.4e-05
c1 = 0.01353 | 0.007315 ± 7.3e-05
c1 = 0.0155 | 0.00727 ± 7.3e-05
c1 = 0.01721 | 0.007239 ± 7.2e-05
c1 = 0.01916 | 0.007203 ± 7.2e-05
c1 = 0.02091 | 0.00717 ± 7.2e-05
c1 = 0.02284 | 0.007137 ± 7.1e-05
c1 = 0.02481 | 0.0071 ± 7.1e-05
c1 = 0.02647 | 0.00707 ± 7.1e-05

CC(=O)[O-].[Na+] [sodium ethanoate] + O
[2]
Settings | molar conductivity [S·m2/mol]
c1 = 0.0002726 | 0.0088 ± 8.8e-05
c1 = 0.0004823 | 0.008807 ± 8.8e-05
c1 = 0.0007722 | 0.008806 ± 8.8e-05
c1 = 0.0009672 | 0.00879 ± 8.8e-05
c1 = 0.001191 | 0.00877 ± 8.8e-05
c1 = 0.001382 | 0.00872 ± 8.7e-05
c1 = 0.001567 | 0.008739 ± 8.7e-05
c1 = 0.001787 | 0.00872 ± 8.7e-05
c1 = 0.002055 | 0.008701 ± 8.7e-05
c1 = 0.002254 | 0.00869 ± 8.7e-05
c1 = 0.002454 | 0.00867 ± 8.7e-05
c1 = 0.003305 | 0.00849 ± 8.5e-05
c1 = 0.00463 | 0.00842 ± 8.4e-05
c1 = 0.006134 | 0.008351 ± 8.3e-05
c1 = 0.007784 | 0.00829 ± 8.3e-05
c1 = 0.008716 | 0.00826 ± 8.3e-05
c1 = 0.01014 | 0.008207 ± 8.2e-05
c1 = 0.01138 | 0.00817 ± 8.2e-05
c1 = 0.01268 | 0.008135 ± 8.1e-05
c1 = 0.01404 | 0.008103 ± 8.1e-05
c1 = 0.01528 | 0.00808 ± 8.1e-05
c1 = 0.01648 | 0.00806 ± 8.1e-05
c1 = 0.01789 | 0.00802 ± 8e-05
c1 = 0.01915 | 0.008 ± 8e-05
c1 = 0.02025 | 0.00797 ± 8e-05
c1 = 0.02164 | 0.007945 ± 7.9e-05
c1 = 0.02337 | 0.007911 ± 7.9e-05
c1 = 0.02523 | 0.00787 ± 7.9e-05
c1 = 0.02696 | 0.007849 ± 7.8e-05
